In publication PMC10590383, “Repurposing conformational changes in ANL superfamily enzymes to rapidly generate biosensors for organic and amino acids” (Nature Communications, 2023):

Experiments:
GECFINDER-4CA = biological target: T1, GECFINDER-4CA (Nicotiana tabacum, UniProt O24146); assay: Fluorescence dose-response of purified cpEGFP sensors (0.75 uM) in 100 mM Tris-HCl pH 7.5, room temperature, 1 mM ATP, 2.5 mM MgCl2; excitation 400, 460 or 480 nm by sensor, emission 510 nm; logistic five-parameter fit.; format: biochemical; conditions: n = 3
T1 construct: gene 4CL2; cpEGFP with fixed linkers (LE-cpEGFP-TR) inserted between Leu439 and Ile440 in hinge A of Nt4CL2
Method: Fig. 3 Dose–response curves and fluorescence spectrums of […]s. a, c, e, g, i, k Dose–response curve of purified […]s with increasing concentrations of ligand in 100 mM Tris-HCl buffer (pH=7.5). The normalized ΔF/F0 value increased after ligand binding. All data shown are mean ± S.D. (n = 3 biologically independent samples). b, d, f, h, j, l The fluorescence spectra of […]s changed as the ligand concentration increased. All data shown are mean ± S.D. (n = 3 biologically independent samples). Source data are provided as a Source data file.
(§1) The study conducted dose–response curve, substrate specificity, and fluorescent spectrum analyses in 100-mM Tris buffer (pH = 7.5), while pH stability experiments were performed in 100-mM Tris buffer at three different pH values (6.5, 7.5, and 8.5) at room temperature. […] protein at a concentration of 0.75 μM, various small molecule concentrations, 1 mM ATP, and 2.5 mM MgCl2 were used in the experiments. Fluorescent signals were detected using a Microplate Reader (Synergy H4, Bio Tek) at an excitation/emission wavelength of 460 nm/510 nm or 480 nm/510 nm. The dose-response curve was determined immediately after the addition of the analyte. The total duration of the measurement was 15 min, with readings taken at one-minute intervals. The dose-response curve was plotted using the fluorescence values obtained after achieving stability in the fluorescence signal. The dose-response curves were fitted using the logistic model LOGISTIC5 available in Origin 2021, which could provide a more adequate fit to asymmetric dose-response data[62],[63]. Excitation spectra were scanned from 300 to 540 nm with a step size of 5 nm, and the emission wavelength was set to 560 nm. Emission spectra were scanned from 470 to 700 nm with a step size of 5 nm, and the excitation wavelength was set to 450 nm. The thermal stability of […] was analyzed using the UNcle multifunctional protein stability analysis system. Measurements were performed in 20 mM MOPS buffer with 2 mM DTT at a sample concentration of 1 mg/mL. Absolute fluorescence quantum yields were measured using an absolute photoluminescence quantum yield spectrometer (FS5, Edinburgh).

[1] = Fluorescence spectra / excitation wavelength scan of […]s; format: physicochemical; conditions: Wavelength 300 nm
Method: (§2) Fig. 3 Dose–response curves and fluorescence spectrums of […]s. a, c, e, g, i, k Dose–response curve of purified […]s with increasing concentrations of ligand in 100 mM Tris-HCl buffer (pH=7.5). […] All data shown are mean ± S.D. (n = 3 biologically independent samples). Source data are provided as a Source data file.
as §1

[2] = Dose–response curve of purified […] with 4-coumaric acid; format: biochemical
Method: as §2
The study conducted dose–response curve, substrate specificity, and fluorescent spectrum analyses in 100-mM Tris buffer (pH = 7.5), while pH stability experiments were performed in 100-mM Tris buffer at three different pH values (6.5, 7.5, and 8.5) at room temperature. […] Fluorescent signals were detected using a Microplate Reader (Synergy H4, Bio Tek) at an excitation/emission wavelength of 460 nm/510 nm or 480 nm/510 nm. The dose-response curve was determined immediately after the addition of the analyte. The total duration of the measurement was 15 min, with readings taken at one-minute intervals. The dose-response curve was plotted using the fluorescence values obtained after achieving stability in the fluorescence signal. […] Excitation spectra were scanned from 300 to 540 nm with a step size of 5 nm, and the emission wavelength was set to 560 nm. Emission spectra were scanned from 470 to 700 nm with a step size of 5 nm, and the excitation wavelength was set to 450 nm. The thermal stability of […] was analyzed using the UNcle multifunctional protein stability analysis system. Measurements were performed in 20 mM MOPS buffer with 2 mM DTT at a sample concentration of 1 mg/mL. Absolute fluorescence quantum yields were measured using an absolute photoluminescence quantum yield spectrometer (FS5, Edinburgh).

[3] = Dependence of […]s on Mg2+ and ATP (fluorescence intensity); format: biochemical; conditions: ATP +
Source text: Ligand specificity is an important biosensors feature. Generally, the NRPS A domains have high specificity for their substrates because they are the first “gatekeeper” of NRPSs and ensure that the correct monomers are activated and thioesterified[32],[33]. […] Twenty proteinogenic amino acids were used to test the ligand specificity of […]s. […] We also investigated the dependence of […]s on Mg^2+ and ATP (Supplementary Fig. 4).
Supplementary Fig. 4 Dependence of GEC FINDER s on Mg2+ and ATP . a-j, Fluore scence intensities of
GECF IN DERs in the absence of any substra te, in the pre sence of Mg2+ alone, ATP alone, both Mg2+ and ATP, Mg2+
and ATP with re spective substra tes. Mg2+ concentra tion was 2.5 mM, and ATP concentra tion was 1 mM. a, 100 μM
data are provided as a Source Data file.

GECFINDER-ATP = biological target: T2, GECFINDER-ATP (Bacillus subtilis, UniProt P39845); assay: Fluorescence dose-response of purified […]-ATP with ATP as the varied ligand (10 nM to 2 mM), 100 mM Tris pH 7.5, room temperature, excitation/emission 480/510 nm.; format: biochemical; conditions: n = 3
T2 construct: gene ppsA; PpsA-GluA A domain; LE-cpEGFP-TR inserted between Asp425 and Asp426 in hinge A
Method: as §1, with “Excitation spectra were scanned from 300 to 540 nm with a step size of 5 nm, and the emission wavelength was set to 560 nm. Emission spectra were scanned from 470 to 700 nm with a step size of 5 nm, and the excitation wavelength was set to 450 nm.” left out, “Measurements were performed in 20 mM MOPS buffer with 2 mM DTT at a sample concentration of 1 mg/mL.” left out, “Edinburgh). […]” for “Edinburgh).”

GrsA-Phe A domain = conditions: Km for ATP of GrsA-Phe A domain; cited from earlier work
At4CL2 = conditions: ATP Km of At4CL2, homolog of Nt4CL2; cited from earlier work

T1 sequence (O24146 2-542): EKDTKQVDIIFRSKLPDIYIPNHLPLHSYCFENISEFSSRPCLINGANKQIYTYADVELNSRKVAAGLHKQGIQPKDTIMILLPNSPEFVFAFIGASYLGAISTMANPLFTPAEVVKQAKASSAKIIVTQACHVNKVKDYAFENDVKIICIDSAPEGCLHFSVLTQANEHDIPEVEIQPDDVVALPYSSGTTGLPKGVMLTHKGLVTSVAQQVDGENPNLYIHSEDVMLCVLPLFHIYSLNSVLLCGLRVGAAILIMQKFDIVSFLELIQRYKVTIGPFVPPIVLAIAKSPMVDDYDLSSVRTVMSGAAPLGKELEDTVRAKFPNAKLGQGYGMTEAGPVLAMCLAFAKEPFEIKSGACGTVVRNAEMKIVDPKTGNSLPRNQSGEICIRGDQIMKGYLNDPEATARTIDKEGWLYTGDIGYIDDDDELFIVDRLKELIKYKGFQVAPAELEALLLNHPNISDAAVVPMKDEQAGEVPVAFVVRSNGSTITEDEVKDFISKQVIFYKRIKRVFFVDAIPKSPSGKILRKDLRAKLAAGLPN
T2 sequence (P39845 434-960): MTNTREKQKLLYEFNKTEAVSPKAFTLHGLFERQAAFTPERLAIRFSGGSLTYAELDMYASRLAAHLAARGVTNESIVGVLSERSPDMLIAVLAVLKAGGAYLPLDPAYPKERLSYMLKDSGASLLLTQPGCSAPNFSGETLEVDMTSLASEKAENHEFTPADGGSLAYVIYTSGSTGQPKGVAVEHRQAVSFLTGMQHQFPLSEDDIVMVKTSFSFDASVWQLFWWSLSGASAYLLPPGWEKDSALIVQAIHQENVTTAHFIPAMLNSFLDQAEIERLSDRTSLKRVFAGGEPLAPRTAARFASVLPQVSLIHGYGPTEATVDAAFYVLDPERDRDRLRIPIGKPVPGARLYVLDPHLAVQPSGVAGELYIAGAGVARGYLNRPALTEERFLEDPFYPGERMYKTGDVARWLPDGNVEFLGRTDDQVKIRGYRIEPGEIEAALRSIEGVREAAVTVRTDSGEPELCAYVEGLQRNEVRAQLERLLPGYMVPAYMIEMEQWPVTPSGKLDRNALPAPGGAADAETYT

O=C(O)/C=C/c1ccc(O)cc1 [4-coumaric acid]
EC50 (GECFINDER-4CA): 1.03 ± 0.06 µM
Wavelength scan, AVE of Repeat 1-3 (Fig. 3 b) ([1]; 0.001 μM 4-coumaric acid): 368
Wavelength scan, AVE of Repeat 1-3 (Fig. 3 b) ([1]; 2.5 μM 4-coumaric acid): 388.333
Wavelength scan, AVE of Repeat 1-3 (Fig. 3 b) ([1]; 250 μM 4-coumaric acid): 108.667
Dose-response, AVE of Repeat 1-3 (Fig. 3 a) ([2]; 4-coumaric acid 0.001 μM): 0
Dose-response, AVE of Repeat 1-3 (Fig. 3 a) ([2]; 4-coumaric acid 0.01 μM): 0.02925
Dose-response, AVE of Repeat 1-3 (Fig. 3 a) ([2]; 4-coumaric acid 0.25 μM): 0.1354
Dose-response, AVE of Repeat 1-3 (Fig. 3 a) ([2]; 4-coumaric acid 0.5 μM): 0.2537
Dose-response, AVE of Repeat 1-3 (Fig. 3 a) ([2]; 4-coumaric acid 2.5 μM): 0.5733
Dose-response, AVE of Repeat 1-3 (Fig. 3 a) ([2]; 4-coumaric acid 5 μM): 0.6689
Dose-response, AVE of Repeat 1-3 (Fig. 3 a) ([2]; 4-coumaric acid 25 μM): 0.7533
Dose-response, AVE of Repeat 1-3 (Fig. 3 a) ([2]; 4-coumaric acid 50 μM): 0.7561
Dose-response, AVE of Repeat 1-3 (Fig. 3 a) ([2]; 4-coumaric acid 250 μM): 0.7978
Dose-response, AVE of Repeat 1-3 (Fig. 3 a) ([2]; 4-coumaric acid 500 μM): 0.7717
Dose-response, AVE of Repeat 1-3 (Fig. 3 a) ([2]; 4-coumaric acid 2500 μM): 0.8533
Dose-response, AVE of Repeat 1-3 (Fig. 3 a) ([2]; 4-coumaric acid 5000 μM): 0.8286
fluorescence intensity, AVE of 3 repeats ([3]; Supplementary Fig. 4 a, Mg+ +, 4-coumaric acid +): 3682.33

Nc1ncnc2c1ncn2[C@@H]1O[C@H](COP(=O)(O)OP(=O)(O)OP(=O)(O)O)[C@@H](O)[C@H]1O [ATP, adenosine triphosphate]
EC50 (GECFINDER-ATP): 69.3 ± 4.69 µM
fluorescence intensity, AVE of 3 repeats ([3]; Supplementary Fig. 4 a, Mg+ +, 4-coumaric acid -): 2171.67
fluorescence intensity, AVE of 3 repeats ([3]; Supplementary Fig. 4 a, Mg+ -, 4-coumaric acid -): 2266.67
fluorescence intensity, AVE of 3 repeats ([3]; Supplementary Fig. 4 b, Mg+ +, phenylalanine -): 9194
fluorescence intensity, AVE of 3 repeats ([3]; Supplementary Fig. 4 b, Mg+ -, phenylalanine -): 7173.67
fluorescence intensity, AVE of 3 repeats ([3]; Supplementary Fig. 4 c, Mg+ +, glutamine -): 17330.3
fluorescence intensity, AVE of 3 repeats ([3]; Supplementary Fig. 4 c, Mg+ -, glutamine -): 17083
fluorescence intensity, AVE of 3 repeats ([3]; Supplementary Fig. 4 e, Mg+ +, isoleucine -): 12985
fluorescence intensity, AVE of 3 repeats ([3]; Supplementary Fig. 4 e, Mg+ -, isoleucine -): 12174.7
fluorescence intensity, AVE of 3 repeats ([3]; Supplementary Fig. 4 f, Mg+ +, histidine -): 25974
fluorescence intensity, AVE of 3 repeats ([3]; Supplementary Fig. 4 f, Mg+ -, histidine -): 26138.3
fluorescence intensity, AVE of 3 repeats ([3]; Supplementary Fig. 4 g, Mg+ +, leucine -): 7346.67
fluorescence intensity, AVE of 3 repeats ([3]; Supplementary Fig. 4 g, Mg+ -, leucine -): 6910.33
fluorescence intensity, AVE of 3 repeats ([3]; Supplementary Fig. 4 i, Mg+ +, tyrosine -): 5938.67
fluorescence intensity, AVE of 3 repeats ([3]; Supplementary Fig. 4 i, Mg+ -, tyrosine -): 5712
fluorescence intensity, AVE of 3 repeats ([3]; Supplementary Fig. 4 j, Mg+ +, phenylalanine -): 7465
fluorescence intensity, AVE of 3 repeats ([3]; Supplementary Fig. 4 j, Mg+ -, phenylalanine -): 7633
fluorescence intensity, AVE of 3 repeats ([3]; Supplementary Fig. 4 h, Mg+ +, S-β-phenylalanine -): 5374.33
fluorescence intensity, AVE of 3 repeats ([3]; Supplementary Fig. 4 h, Mg+ -, S-β-phenylalanine -): 5014
fluorescence intensity, AVE of 3 repeats ([3]; Supplementary Fig. 4 d, Mg+ +, proline -): 50889
fluorescence intensity, AVE of 3 repeats ([3]; Supplementary Fig. 4 d, Mg+ -, proline -): 46119
Km (GrsA-Phe A domain): 150 µM
Km (At4CL2): 163 µM
